Measurements taken from patent US20100267561A1, “HERBICIDAL PYRIDAZINONE DERIVATIVES” (priority 2007, published 2010).

How the values were obtained:
Assay type in all cases: in vivo
[1] = system: chickweed (Stellaria media); experiment: Test B postemergence plant response; conditions: Postemergence
Summary of the method: (§1)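 Postemergence greenhouse test; plants at 2 to 18 cm (1- to 4-leaf stage) given formulated test chemical, held 13 to 15 days, then visually rated against untreated controls on a 0 (no effect) to 100 (complete control) scale; dash means no result.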

[2] = system: canarygrass (Phalaris minor); experiment: Test B postemergence plant response; conditions: Postemergence
Summary of the method: as §1

[3] = system: winter barley (Hordeum vulgare); experiment: Test B postemergence plant response; conditions: Postemergence
Summary of the method: as §1

[4] = system: windgrass (Apera spica-venti); experiment: Test B postemergence plant response; conditions: Postemergence
Summary of the method: as §1

[5] = system: rice (Oryza sativa); experiment: Test B flooded paddy test plant response
Summary of the method: (§2)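 Paddy-water application to 2-leaf plants in pots held under 3 cm of flooding; response is a 0–100 visual control rating against controls after 13 to 15 days, and a dash marks a missing result.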

[6] = system: barnyardgrass (Echinochloa crus-galli); experiment: Test B flooded paddy test plant response
Summary of the method: as §2

[7] = system: umbrella sedge (Cyperus difformis); experiment: Test B flooded paddy test plant response
Summary of the method: as §2

[8] = system: large crabgrass (Digitaria sanguinalis); experiment: Test A pre-/postemergence plant response
Summary of the method: (§3)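 Seeds in loam soil/sand blend treated preemergence by directed soil spray, with simultaneous postemergence spray on 2–10 cm plants at one- to two-leaf stage; compounds in non-phytotoxic solvent with surfactant. Injury visually rated versus untreated controls after about 10 days in greenhouse, 0 (no effect) to 100 (complete control).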

[9] = system: wheat (Triticum aestivum); experiment: Test A pre-/postemergence plant response
Summary of the method: as §3

[10] = system: corn (Zea mays); experiment: Test A pre-/postemergence plant response
Summary of the method: as §3

[11] = system: velvetleaf (Abutilon theophrasti); experiment: Test A pre-/postemergence plant response
Summary of the method: as §3

[12] = system: morningglory (Ipomoea coccinea); experiment: Test A pre-/postemergence plant response
Summary of the method: as §3

[13] = system: barnyardgrass (Echinochloa crus-galli); experiment: Test A pre-/postemergence plant response
Summary of the method: as §3

[14] = system: giant foxtail (Setaria faberi); experiment: Test A pre-/postemergence plant response
Summary of the method: as §3

[15] = 31 g ai/ha, scale 0 to 100, 0 no effect, 100 complete control
[16] = Flood (flooded paddy test), 62 g ai/ha, scale 0 to 100, 0 no effect, 100 complete control
[17] = Flood (flooded paddy test), 125 g ai/ha, scale 0 to 100, 0 no effect, 100 complete control
[18] = Flood (flooded paddy test), 250 g ai/ha, scale 0 to 100, 0 no effect, 100 complete control
[19] = Flood, 31 g ai/ha, scale 0 to 100
[20] = Postemergence, 125 g ai/ha, 0 to 100 scale, 0 no effect, 100 complete control
[21] = Postemergence, 500 g ai/ha, 0 to 100 scale, 0 no effect, 100 complete control
[22] = Preemergence, 125 g ai/ha, 0 to 100 scale (0 no effect, 100 complete control)
[23] = Preemergence, 500 g ai/ha, 0 to 100 scale (0 no effect, 100 complete control)

`CCc1cc(-c2ccc(C(F)(F)F)cc2)nn1-c1c(O)c(C)nn(C)c1=O` [Compound 16] was tested, and the “Plant response rating, Chickweed” value [1, 15] was 0, the “Plant response rating, Chickweed” value ([1]; 62 g ai/ha, scale 0 to 100) was 0 and the “Plant response rating, Chickweed” value ([1]; 125 g ai/ha, scale 0 to 100) was 0. For the same compound, the “Plant response rating, Chickweed” value ([1]; 250 g ai/ha, scale 0 to 100) was 0, the “Plant response rating, Canarygrass” value [2, 15] was 70 and the “Plant response rating, Canarygrass” value ([2]; 62 g ai/ha, scale 0 to 100) was 95. The “Plant response rating, Barley” value [3, 15] was 90, the “Plant response rating, Barley” value ([3]; 62 g ai/ha, scale 0 to 100) was 90 and the “Plant response rating, Barley” value ([3]; 125 g ai/ha, scale 0 to 100) was 95. For the same compound, the “Plant response rating, Barley” value ([3]; 250 g ai/ha, scale 0 to 100) was 98, the “Plant response rating, Windgrass” value [4, 15] was 90 and the “Plant response rating, Windgrass” value ([4]; 62 g ai/ha, scale 0 to 100) was 100. The “Plant response rating, Windgrass” value ([4]; 125 g ai/ha, scale 0 to 100) was 100, the “Plant response rating, Windgrass” value ([4]; 250 g ai/ha, scale 0 to 100) was 100 and the “Plant response rating, Rice” value [5, 16] was 20. For the same compound, the “Plant response rating, Rice” value [5, 17] was 45, the “Plant response rating, Rice” value [5, 18] was 80 and the “Plant response rating, Rice” value [5, 19] was 0. For the same compound, the “Plant response rating, Barnyardgrass” value [6, 16] was 20, the “Plant response rating, Barnyardgrass” value [6, 17] was 40 and the “Plant response rating, Barnyardgrass” value [6, 18] was 60. The “Plant response rating, Barnyardgrass” value [6, 19] was 15, the “Plant response rating, Sedge, Umbrella” value [7, 16] was 30 and the “Plant response rating, Sedge, Umbrella” value [7, 17] was 30. The “Plant response rating, Sedge, Umbrella” value [7, 18] was 45, the “Plant response rating, Sedge, Umbrella” value [7, 19] was 0 and the “Plant response rating, Crabgrass, Large” value [8, 20] was 90. The “Plant response rating, Crabgrass, Large” value [8, 21] was 100, the “Plant response rating, Crabgrass, Large” value [8, 22] was 90 and the “Plant response rating, Crabgrass, Large” value [8, 23] was 100. The “Plant response rating, Wheat” value [9, 20] was 70, the “Plant response rating, Wheat” value [9, 21] was 90 and the “Plant response rating, Wheat” value [9, 22] was 70. The “Plant response rating, Wheat” value [9, 23] was 100, the “Plant response rating, Corn” value [10, 20] was 90 and the “Plant response rating, Corn” value [10, 21] was 100. The “Plant response rating, Corn” value [10, 22] was 70, the “Plant response rating, Corn” value [10, 23] was 90 and the “Plant response rating, Velvetleaf” value [11, 20] was 0. For the same compound, the “Plant response rating, Velvetleaf” value [11, 21] was 0, the “Plant response rating, Velvetleaf” value [11, 22] was 0 and the “Plant response rating, Velvetleaf” value [11, 23] was 0. For the same compound, the “Plant response rating, Morningglory” value [12, 20] was 0, the “Plant response rating, Morningglory” value [12, 21] was 0 and the “Plant response rating, Morningglory” value [12, 22] was 0. The “Plant response rating, Morningglory” value [12, 23] was 0, the “Plant response rating, Barnyardgrass” value [13, 20] was 90 and the “Plant response rating, Barnyardgrass” value [13, 21] was 100. For the same compound, the “Plant response rating, Barnyardgrass” value [13, 22] was 100, the “Plant response rating, Barnyardgrass” value [13, 23] was 100 and the “Plant response rating, Foxtail, Giant” value [14, 20] was 100. The “Plant response rating, Foxtail, Giant” value [14, 21] was 100, the “Plant response rating, Foxtail, Giant” value [14, 22] was 100 and the “Plant response rating, Foxtail, Giant” value [14, 23] was 100.
